One data set has as its system g3p in COS-1 cells. Nature of the data set: g3p expression in transfected COS-1 cells by IFA. The format is cell-based. The conditions noted are these: COS-1 cells treated with protease inhibitor. On the procedure:
To achieve greater levels of expression, the plasmids were transfected into COS-1 cells, which are capable of replicating the plasmids and generating exceptional amounts of the encoded proteins. […] Several different transfection methods and variations were tested to increase the proportion of cells that would express detectable g3p. […] Therefore, g3p is likely being broken down rapidly by the mammalian cells.
This possibility was further tested by treating the COS-1 cells with a protease inhibitor (ALLN) that can inhibit proteases in the endoplasmic reticulum of living cells. […] The antigen was detected in the Golgi apparatus as well as in the endoplasmic reticulum. Less of the truncated version of g3p (without a membrane anchor) was detectable; whether any of it is secreted from the expressing cells under these conditions remains to be determined.

Data set [1] deals with binding of C. albicans hydrophilic yeast cells to splenic marginal zone macrophages. Nature of the data set: Ex vivo adherence assay on mouse splenic tissue. As to conditions: purified epitope of mAb 10G. The source says: Tissue adherence characteristics of C. albicans and adhesin isolation. By use of an ex vivo adherence assay, the adherence characteristics of hydrophilic and hydrophobic yeast cells to mouse splenic and lymph node tissue was examined (Cutler, J. E., et al., 1990, Characteristics of Candida albicans adherence to mouse tissues. Infec. Immun. 58:1902-1908); Han, Y., et al. 1993. Binding of C. albicans yeast cells to mouse popliteal lymph node tissue is mediated by macrophages. Infect. Immun. 61:3244-3249; and Hazen, K. C., et al. 1991. Differential adherence between hydrophobic and hydrophilic yeast cells of C. albicans. Infect. Immun. 59:907-91212).
C. neoformans strain 602 log and stationary phase cells were removed form the various growth conditions and tested for adherence to splenic tissue in the ex vivo assay. […]
However, 2ME extract will not inhibit yeast adherence if the extract is treated with antiserum from vaccinated animals. […] 100 μl of each was overlaid onto splenic cryosections for 15 min at 4° C., the mixtures were decanted, 100 μl of a suspension of yeast cells (1.5×10^7/0.1 ml DMEM) was added to each tissue section for 15 min at 4° C., and yeast cell binding was quantified as previously described (Riesselman, M. H. et al. 1991. Improvements and important considerations of an ex vivo assay to study interactions of C. albicans with splenic tissue., J. Immunol. Methods 1450:153-160). […]

Data set [2] addresses Monoclonal Antibody B6.1 (930610), ATCC Accession No. HB11925.
A further data set is described as follows: Solubility tests. The format is physicochemical. An excerpt: Synthetic peptide inhibits binding of MAb B6.1 to its' carbohydrate epitope. […] We obtained a synthetic 13-mer peptide (Bio-Synthesis, Lewisville, Tex.), YRQFVTGFWGPPC, (SEQ ID NO:7) which was designed to include the PS76 nonapeptide sequence (designated as PS76p) plus the 3 amino acid pIII tether (GPP) and an added cysteine (C) to facilitate peptide coupling to a carrier protein, such as keyhole limpet hemocyanin (KLH). Due to the high number of hydrophobic amino acids in the synthesized PS76p, solubility tests were run to determine conditions for dot blot inhibition studies. The PS76p was soluble in trifluoroacetic acid, dimethylsulfoxide, 20% v/v acetic acid, citrate and acetate buffers below pH 5.4, borate buffer above pH 8.5, but not soluble in deionized water, phosphate buffered saline (PBS), 15% v/v dimethylformamide, chloroform, or methanol.

A further data set deals with C. albicans 2ME extract. The data set can be described thus: Antibody response of mice immunized with peptide mimotope preparations. The conditions noted are these: for Class of the antibody response against 2ME extract: γ-chain or μ-chain specific secondary antibodies. Type of data set: in vivo, BALB/c mice. On the procedure: Administration of peptide intraperitoneally (i.p.) BALB/c mice (4 animals) were immunized i.p. with PS76p (1 mg per dose) mixed into sterile PBS (degassed and nitrogen sparged) with and without RS-700MPL+TDM Ribi Adjuvant (Ribi Immunochem, Hamilton, Mont.). The insolubility of PS76p in PBS, as noted above, produced a particulate inoculum which was sonicated briefly (10 sec, ice cold) to minimize particulate size prior to injection. Animals were boosted with 1 mg PS76p at day 21 and serum samples were obtained on day 28. Sera from all four mice agglutinated hydrophilic C. albicans cells and agglutinated 2-ME extract-latex beads. The anti-Candida response appeared somewhat stronger in the animals receiving peptide with adjuvant.
Reactivity of the anti-PS76p sera from the mice was also tested in dot blot assays against 2-ME extract (1 μg/dot). Immune sera were diluted 1:10 in 5% BLOTTO-phage buffer, incubated 12-16 h with preblocked dot blots, washed and incubated with peroxidase-conjugated goat anti-mouse Ig (G,M, and A). […] Additional dot blots were incubated in primary antibodies as above and reacted with either γ-chain specific or μ-chain specific secondary antibodies.
Animals were administered booster immunizations of PS76p every two weeks and serum samples obtained 1 week after each. An ELISA assay was utilized to determine any change in titer for the anti-PS76p antiserum samples. Briefly, 2ME extract-coated wells or wells coated with an irrelevant carbohydrate were blocked in 5% BLOTTO/phage buffer and incubated with dilutions of either pre-immune sera or various anti-PS76p antiserum samples. Subsequent steps with the secondary antibody and substrate solution were as described above for ELISA. All of the anti-PS76p serum samples reacted with 2ME extract and recognized the peptide-carrier protein conjugates, but not the irrelevant carbohydrate or the carrier proteins alone. […] Other BALB/C mice (2 animals) were immunized with PS76p plus Ribi adjuvant (1 mg/dose subcutaneous inoculation (s.c.), and reached higher anti-PS76 antibody titers (e.g. 160 by ELISA) after the second boost. ELISA tests performed with class-specific secondary antibody reagents confirm that the response is primarily IgM. […]

Data set [3] has as its system MAb B6.1. The data set can be described thus: Dot blot inhibition of MAb B6.1 by synthetic peptide at pH 8.6. Type of data set: binding, mouse. The conditions noted are these: up to 200 μM peptide. An excerpt: Because pH below 5 or above 8.5 is required to solubilize PS76p, the reactivity of MAb B6.1 at low and high pH was investigated. […] Although MAb B6.1 is functional at these pH conditions, the PS76p may or may not retain proper epitope conformation at this pH and may require tethering to a carrier molecule to enable inhibition studies to be done at pH 7.

Data set [4] concerns MAb B6.1. The data set can be described thus: ELISA: peptide-carrier conjugates with MAb B6.1 at physiologic pH. As to conditions: OD 490 nm. The format is binding, mouse. On the procedure:
(§1) Samples of the final conjugates, PS76p-MBS-KLH (i.e. PS76-KLH) and PS76p-GMBS-OVA (i.e. PS76-OVA) were tested by enzyme linked immunosorbent assay (ELISA) for reactivity with MAb B6.1 at physiologic pH. Microtiter plate wells were coated with the peptide conjugates or the carrier proteins alone, washed (Tris buffered saline with 0.1% Tween-20), and blocked in 5% BLOTTO/phage buffer. Wells were washed and incubated with MAb B6.1, an irrelevant IgM (MAb S10) or block only, washed, and a horseradish peroxidase-conjugated goat anti-mouse Ig (G and M) was added. Wells were washed and an o-phenylenediamine substrate solution was added, incubated 10 min and color development stopped with 10% sulfuric acid, and the plate read at OD=490 nm. […] The PS76-KLH conjugate was utilized in an ELISA-based inhibition assay as follows. Microtiter plate wells were coated with PS76-KLH and blocked as above. MAb B6.1 ([…] in block) was pre-incubated with or without either 50 or 500 μg of acid-hydrolyzed 2ME extract per ml of solution, and then added to the conjugate coated well.
On the technique in general: In an ELISA, binding on a coated surface is turned into a signal by an enzyme label.

A further data set has as its system MAb S10. Nature of the data set: ELISA: peptide-carrier conjugates with irrelevant IgM MAb S10. The format is binding. The conditions noted are these: physiologic pH. The procedure: as §1

Where a SMILES comes first, the peptide text is derived from it. [ ]: non-standard residue; d: D form. Nle = CCCC[C@H](N)C(=O)O

These results are taken from patent US6403090B1, “Peptides which mimic candida carbohydrate epitopes and their use in a vaccine” (The Research and Development Institute Inc., priority 1994, dated 2002).

As to `CCCC[C@@H](C=O)NC(=O)[C@H](CC(C)C)NC(=O)[C@H](CC(C)C)NC(C)=O` [ALLN] (Ac-Leu-Leu-[Nle]-aldehyde), in the data set on g3p in COS-1 cells, the “Frequency and amount of g3p detectable by IFA” value is on record as “significant increase”.
Take `OC[C@H]1O[C@@H](O[C@@H]2[C@H](O[C@@H]3[C@H](O[C@@H]4C(O)O[C@H](CO)[C@@H](O)[C@@H]4O)O[C@H](CO)[C@@H](O)[C@@H]3O)O[C@H](CO)[C@@H](O)[C@@H]2O)[C@@H](O)[C@@H](O)[C@@H]1O` (stereo partly drawn) [tetramannose, β-1,2-linked straight-chained tetramannose]: the “Binding of yeast cells to the splenic marginal zone” value in data set [1] was “blocks binding”.
As to “M13KBst, the parent vector (parent phage) for the PDPL (from UniProt P69168 19-424)”, the absorbance (OD490) was 0.032 OD490 with irrelevant IgM MAb S10 and 0.021 OD490 in [2].
Turning to “YRQFVTGFWGPPC [PS76p, synthetic 13-mer: PS76 nonapeptide plus GPP tether and added cysteine]”, the Solubility entry in “Solubility tests” (deionized water, PBS, 15% v/v dimethylformamide, chloroform, methanol) was “not soluble”; in “Solubility tests” (trifluoroacetic acid, dimethylsulfoxide, 20% v/v acetic acid, citrate and acetate buffers below pH 5.4, borate buffer above pH 8.5), “soluble”. For the same molecule, the “ELISA titer against 2ME extract” value with C. albicans 2ME extract (1 mg i.p. immunizations, boosters every two weeks) is listed as approximately 40. Besides, the “Agglutination of hydrophilic C. albicans cells and 2-ME extract-latex beads by sera of immunized mice” value in the data set on C. albicans 2ME extract (1 mg per dose i.p. with and without Ribi adjuvant, boost day 21, serum day 28, all four mice) is “agglutinated”. Also, in the data set with C. albicans 2ME extract (1 mg/dose s.c. plus Ribi adjuvant, after the second boost), the “ELISA anti-PS76 antibody titer” value is 160. Further, in the data set on C. albicans 2ME extract (sera 1:10, 1 μg/dot, all four immunized mice), the “Dot blot reactivity of immune sera to 2-ME extract” value was “showed reactivity”. For the same molecule, the “Class of the antibody response against 2ME extract” value in the data set on C. albicans 2ME extract is “primarily IgM”. Besides, the “Inhibition of MAb B6.1 binding to 2-ME extract” value in the data set with MAb B6.1 [3] is given as “negative”.

B1: PS76-OVA: PS76p conjugated to ovalbumin via GMBS (conjugate)
peptide: YRQFVTGFWGPPC
chain: GSIGAASMEFCFDVFKELKVHHANENIFYCPIAIMSALAMVYLGAKDSTRTQINKVVRFDKLPGFGDSIEAQCGTSVNVHSSLRDILNQITKPNDVYSFSLASRLYAEERYPILPEYLQCVKELYRGGLEPINFQTAADQARELINSWVESQTNGIIRNVLQPSSVDSQTAMVLVNAIVFKGLWEKAFKDEDTQAMPFRVTEQESKPVQMMYQIGLFRVASMASEKMKILELPFASGTMSMLVLLPDEVSGLEQLESIINFEKLTEWTSSNVMEERKIKVYLPRMKMEEKYNLTSVLMAMGITDVFSSSANLSGISSAESLKISQAVHAAHAEINEAGREVVGSAEAGVDAASVSEEFRADHPFLFCIKHIATNAVLFFGRCVSP
For the molecule B1, in the data set on MAb B6.1 [4], the “Reactivity with MAb B6.1 by ELISA” value is recorded as “reacted”. Besides, the “ELISA titer against 2ME extract” value in the data set on C. albicans 2ME extract (conjugate s.c.) came to 320. Further, the “Class of the antibody response against 2ME extract” value in the data set on C. albicans 2ME extract is “primarily IgM”. Further, the “Reactivity with MAb S10 by ELISA” value in the data set with MAb S10 is reported as “not substantially”.
